# Patent publication US12385039B2, “Trinucleotide cap analogs, preparation and uses thereof” (LIFE TECHNOLOGIES CORPORATION, priority 2020, dated 2025)
# What was measured:
# T7 RNA polymerase = T7 RNA polymerase (Escherichia phage T7, UniProt P00573); conditions: HB-WT Template, ARCA Cap (4:1 ARCA:GTP)
# Protocol: The DNAzyme reaction was performed in a 20 μl reaction containing 1-2 μg RNA and 0.5 μM DNAzyme in 50 mM Tris-HCl pH 7.5. The reaction mixture was preheated at 85° C. for 30 seconds and equilibrate at 37° C. for 5 minutes and added magnesium chloride to 10 mM so that the total volume was 20 μl. The reaction mixture was incubated at 37° C. for 1 hour and stopped by adding 2 μL TURBO DNase and incubating at 37° C. for 30 minutes.
# The DNAzyme reaction mixture was prepared for gel analysis by mixing with 2× NOVEX™ TBE-Urea sample buffer (Thermo Fisher Scientific, cat. no. LC6876) and heating at 70° C. for 2 minutes. The sample was loaded onto a NovEx™ 15% TBE-Urea gel (Thermo Fisher Scientific, cat. no. EC68855BOX) and ran at 15 V, 15 mA for 1 hour and 40 minutes or until the bromophenol blue dye migrated to the bottom of the gel. The gel was removed from the cassette, washed in water, and stained with SYBR™ Gold Nucleic Acid Gel Stain (Thermo Fisher Scientific, cat. no. S11494) for 5-10 minutes. Following a brief wash in water, the gel was visualized over an UV light and an image was captured using an iBRIGHT™ system (Thermo Fisher Scientific). Capping efficiency was determined using […] ™ software (ProteinSimple) to measure band intensities of the fast and slow migrating transcripts (capped transcripts are longer than uncapped transcripts; therefore uncapped migrates faster).
# T7 or SP6 RNA polymerase = conditions: either 3'-OH of G or m7G can initiate elongation; cited from earlier work
# Chain of T7 RNA polymerase (P00573 whole entry, looked up): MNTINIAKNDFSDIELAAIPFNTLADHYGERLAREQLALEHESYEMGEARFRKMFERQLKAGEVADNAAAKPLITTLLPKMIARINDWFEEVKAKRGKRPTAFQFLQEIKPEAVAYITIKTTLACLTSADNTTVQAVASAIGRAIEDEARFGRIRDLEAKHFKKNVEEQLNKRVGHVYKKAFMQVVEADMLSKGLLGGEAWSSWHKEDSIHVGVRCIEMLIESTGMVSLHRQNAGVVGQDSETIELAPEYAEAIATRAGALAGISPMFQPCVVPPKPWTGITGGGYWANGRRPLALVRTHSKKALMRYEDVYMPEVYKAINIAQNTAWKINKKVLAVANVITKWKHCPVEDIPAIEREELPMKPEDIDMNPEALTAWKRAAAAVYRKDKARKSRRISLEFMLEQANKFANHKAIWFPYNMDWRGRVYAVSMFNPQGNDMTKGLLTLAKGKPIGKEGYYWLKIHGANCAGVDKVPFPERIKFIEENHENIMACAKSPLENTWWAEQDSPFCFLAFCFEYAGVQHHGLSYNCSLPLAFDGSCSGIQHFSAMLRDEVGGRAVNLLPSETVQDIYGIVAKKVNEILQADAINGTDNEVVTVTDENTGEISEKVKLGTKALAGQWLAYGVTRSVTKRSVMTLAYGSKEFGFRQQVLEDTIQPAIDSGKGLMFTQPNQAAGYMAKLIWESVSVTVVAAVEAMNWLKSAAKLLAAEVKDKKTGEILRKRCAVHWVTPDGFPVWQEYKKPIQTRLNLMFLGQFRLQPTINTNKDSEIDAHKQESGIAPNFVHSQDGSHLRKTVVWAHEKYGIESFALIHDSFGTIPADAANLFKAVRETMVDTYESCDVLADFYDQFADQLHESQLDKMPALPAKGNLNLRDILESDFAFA
Structure (SMILES),Capping Efficiency Avg % capped (T7 RNA polymerase) [%],capped RNA that is translatable (T7 or SP6 RNA polymerase) [%]
CO[C@H]1[C@@H](O)[C@H](n2c[n+](C)c3c(=O)[nH]c(N)nc32)O[C@@H]1COP(=O)(O)OP(=O)(O)OP(=O)(O)OC[C@H]1O[C@@H](n2cnc3c(=O)[nH]c(N)nc32)[C@H](O)[C@@H]1O [ARCA Cap],71.93,–
"Cn1c[n+]([C@@H]2O[C@H](COP(=O)(O)OP(=O)(O)OP(=O)(O)OC[C@H]3O[C@@H](n4cnc5c(=O)[nH]c(N)nc54)[C@H](O)[C@@H]3O)[C@@H](O)[C@H]2O)c2nc(N)[nH]c(=O)c21 [mCAP, m^7G(5′)ppp(5′)G]",–,~50
